# Assay results taken from patent publication US20170197979A1, “BENZOTHIADIAZOLAMINES” (BAYER PHARMA AKTIENGESELLSCHAFT, priority 2014, published 2017).
# Biological target: T1, human full-length MKNK1 (Homo sapiens, UniProt Q9BUB5, T385D)
# T1 construct: GST (N); purchased Carna Biosciences 02-145; host or cells: insect cells (baculovirus expression system)
# Experiment: MKNK1 kinase high ATP assay (TR-FRET)
# Assay type: biochemical
# Conditions: TR-FRET, high ATP (2 mM final), 15 min preincubation with enzyme, GST-MKNK1 (T344D); read-out: MKNK1 IC50
# Method: MKNK1 Kinase High ATP Assay
# MKNK1-inhibitory activity at high ATP of compounds of the present invention after their preincubation with MKNK1 was quantified employing the TR-FRET-based MKNK1 high ATP assay as described in the following paragraphs.
# A recombinant fusion protein of Glutathione-S-Transferase (GST, N-terminally) and human full-length MKNK1 (amino acids 1-424 and T344D of accession number BAA 19885.1), expressed in insect cells using baculovirus expression system and purified via glutathione sepharose affinity chromatography, was purchased from Carna Biosciences (product no 02-145) and used as enzyme. As substrate for the kinase reaction the biotinylated peptide biotin-Ahx-IKKRKLTRRKSLKG (C-terminus in amide form) was used, which can be purchased e.g. from the company Biosyntan (Berlin-Buch, Germany).
# For the assay 50 nL of a 100 fold concentrated solution of the test compound in DMSO was pipetted into a black low volume 384 well microtiter plate (Greiner Bio-One, Frickenhausen, Germany), 2 μL of a solution of MKNK1 in aqueous assay buffer [50 mM HEPES pH 7.5, 5 mM MgCl2, 1.0 mM dithiothreitol, 0.005% (v/v) Nonidet-P40 (Sigma)] was added and the mixture was incubated for 15 min at 22° C. to allow pre-binding of the test compounds to the enzyme before the start of the kinase reaction. Then the kinase reaction was started by the addition of 3 μL of a solution of adenosine-tri-phosphate (ATP, 3.3 mM=>final conc. in the 5 μL assay volume is 2 mM) and substrate (0.1 μM=>final conc. in the 5 μL assay volume is 0.06 μM) in assay buffer and the resulting mixture was incubated for a reaction time of 30 min at 22° C. The concentration of MKNK1 was adjusted depending of the activity of the enzyme lot and was chosen appropriate to have the assay in the linear range, typical concentrations were in the range of 0.003 μg/mL. The reaction was stopped by the addition of 5 μL of a solution of TR-FRET detection reagents (5 nM streptavidine-XL665 [Cisbio Bioassays, Codolet, France] and 1 nM anti-ribosomal protein S6 (pSer236)-antibody from Invitrogen [#44921G] and 1 nM LANCE EU-W1024 labeled ProteinG [Perkin-Elmer, product no. AD0071]) in an aqueous EDTA-solution (100 mM EDTA, 0.1% (w/v) bovine serum albumin in 50 mM HEPES pH 7.5).
# The resulting mixture was incubated for 1 h at 22° C. to allow the formation of complex between the phosphorylated biotinylated peptide and the detection reagents. Subsequently the amount of phosphorylated substrate was evaluated by measurement of the resonance energy transfer from the Eu-chelate to the streptavidine-XL. Therefore, the fluorescence emissions at 620 nm and 665 nm after excitation at 350 nm were measured in a TR-FRET reader, e.g. a Rubystar (BMG Labtechnologies, Offenburg, Germany) or a Viewlux (Perkin-Elmer). The ratio of the emissions at 665 nm and at […] was taken as the measure for the amount of phosphorylated substrate. The data were normalised (enzyme reaction without inhibitor=0% inhibition, all other assay components but no enzyme=100% inhibition).
# T1 sequence (Q9BUB5 1-424 isoform Q9BUB5-2 T344D): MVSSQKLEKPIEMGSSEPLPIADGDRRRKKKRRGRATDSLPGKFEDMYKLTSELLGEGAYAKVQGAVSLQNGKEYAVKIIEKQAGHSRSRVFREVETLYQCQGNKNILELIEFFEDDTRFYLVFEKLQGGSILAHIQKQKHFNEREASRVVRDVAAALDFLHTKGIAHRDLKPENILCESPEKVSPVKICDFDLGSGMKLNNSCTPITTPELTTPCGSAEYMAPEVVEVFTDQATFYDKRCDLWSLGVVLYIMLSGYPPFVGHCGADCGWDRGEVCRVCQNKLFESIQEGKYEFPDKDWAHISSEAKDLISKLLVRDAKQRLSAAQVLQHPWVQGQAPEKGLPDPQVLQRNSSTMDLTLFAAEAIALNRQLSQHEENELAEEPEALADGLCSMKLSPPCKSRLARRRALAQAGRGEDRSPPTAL
row,SMILES,IC50 [nM]
1,"CN(CCNC(=O)OC(C)(C)C)C(=O)[C@H]1CCc2c(sc3ncnc(Nc4ccc5nnsc5c4)c23)C1 [Example 22, tert-Butyl {2-[{[(7S)-4-(1,2,3-benzothiadiazol-6-ylamino)-5,6,7,8-tetrahydro[1]benzothieno[2,3-d]pyrimidin-7-yl]carbonyl}(methyl)amino]ethyl}carbamate]",14
2,"CC(C)N(C)C(=O)[C@H]1CCc2c(sc3ncnc(Nc4ccc5nnsc5c4)c23)C1 [Example 23, (7S)-4-(1,2,3-Benzothiadiazol-6-ylamino)-N-methyl-N-(propan-2-yl)-5,6,7,8-tetrahydro[1]benzothieno[2,3-d]pyrimidine-7-carboxamide]",41
3,"O=C([C@H]1CCc2c(sc3ncnc(Nc4ccc5nnsc5c4)c23)C1)N1CCC1 [Example 24, Azetidin-1-yl[(7S)-4-(1,2,3-benzothiadiazol-6-ylamino)-5,6,7,8-tetrahydro[1]benzothieno[2,3-d]pyrimidin-7-yl]methanone]",33
4,"CN(CCN)C(=O)[C@H]1CCc2c(sc3ncnc(Nc4ccc5nnsc5c4)c23)C1 [Example 25, (7S)—N-(2-Aminoethyl)-4-(1,2,3-benzothiadiazol-6-ylamino)-N-methyl-5,6,7,8-tetrahydro[1]benzothieno[2,3-d]pyrimidine-7-carboxamide]",3.2
5,"CN(CC(F)F)C(=O)[C@H]1CCc2c(sc3ncnc(Nc4ccc5nnsc5c4)c23)C1 [Example 26, (7S)-4-(1,2,3-Benzothiadiazol-6-ylamino)-N-(2,2-difluoroethyl)-N-methyl-5,6,7,8-tetrahydro[1]benzothieno[2,3-d]pyrimidine-7-carboxamide]",11

# Next, values leading:
row,IC50 [nM],SMILES
1,15,"CN(CC(C)(C)O)C(=O)[C@H]1CCc2c(sc3ncnc(Nc4ccc5nnsc5c4)c23)C1 [Example 27, (7S)-4-(1,2,3-Benzothiadiazol-6-ylamino)-N-(2-hydroxy-2-methylpropyl)-N-methyl-5,6,7,8-tetrahydro[1]benzothieno[2,3-d]pyrimidine-7-carboxamide]"
2,8.6,"CCN(CCO)C(=O)[C@H]1CCc2c(sc3ncnc(Nc4ccc5nnsc5c4)c23)C1 [Example 28, (7S)-4-(1,2,3-Benzothiadiazol-6-ylamino)-N-ethyl-N-(2-hydroxyethyl)-5,6,7,8-tetrahydro[1]benzothieno[2,3-d]pyrimidine-7-carboxamide]"
3,7,"CN(C)C(=O)CN(C)C(=O)[C@H]1CCc2c(sc3ncnc(Nc4ccc5nnsc5c4)c23)C1 [Example 29, (7S)-4-(1,2,3-Benzothiadiazol-6-ylamino)-N-[2-(dimethylamino)-2-oxoethyl]-N-methyl-5,6,7,8-tetrahydro[1]benzothieno[2,3-d]pyrimidine-7-carboxamide]"
4,8.1,"CN(C)CCCN(C)C(=O)[C@H]1CCc2c(sc3ncnc(Nc4ccc5nnsc5c4)c23)C1 [Example 30, (7S)-4-(1,2,3-Benzothiadiazol-6-ylamino)-N-[3-(dimethylamino)propyl]-N-methyl-5,6,7,8-tetrahydro[1]benzothieno[2,3-d]pyrimidine-7-carboxamide]"
5,14,"O=C([C@H]1CCc2c(sc3ncnc(Nc4ccc5nnsc5c4)c23)C1)N1CC(F)(F)C1 [Example 31, [(7S)-4-(1,2,3-Benzothiadiazol-6-ylamino)-5,6,7,8-tetrahydro[1]benzothieno[2,3-d]pyrimidin-7-yl](3,3-difluoroazetidin-1-yl)methanone]"
6,33,"O=C([C@H]1CCc2c(sc3ncnc(Nc4ccc5nnsc5c4)c23)C1)N1CC(O)C1 [Example 32, [(7S)-4-(1,2,3-Benzothiadiazol-6-ylamino)-5,6,7,8-tetrahydro[1]benzothieno[2,3-d]pyrimidin-7-yl](3-hydroxyazetidin-1-yl)methanone]"
7,8,"CC1(O)CN(C(=O)[C@H]2CCc3c(sc4ncnc(Nc5ccc6nnsc6c5)c34)C2)C1 [Example 33, [(7S)-4-(1,2,3-Benzothiadiazol-6-ylamino)-5,6,7,8-tetrahydro[1]benzothieno[2,3-d]pyrimidin-7-yl](3-hydroxy-3-methylazetidin-1-yl)methanone]"
